Results reported in patent publication US20070167349A1, “Estrogen cancer therapy” (Cell Therapeutics, Inc., priority 2005, published 2007).

What was measured:
[1] = test system: HT-29 human CRC xenograft tumor model; assay: Effect of circulating estrogen on tumor growth; type: in vivo, female CD nu/nu mice; settings: increased levels of estrogen, s.c. controlled release pellets 0.17, 0.36, 0.72 mg/60 days
[2] = target: T1, ERβ (Homo sapiens, UniProt Q92731); assay: ERβ expression (western blot) and activation (RT-PCR of E-Cadherin, Id-2) in xenograft tumors; type: in vivo; settings: HT-29 and H460 xenograft tumors, E2 supplements
T1 construct: proteins were extracted by homogenization in RIPA buffer; from tissue; host or cells: HT-29 and H460 human xenograft tumours in female CD nu/nu mice
T1 sequence (Q92731 whole entry): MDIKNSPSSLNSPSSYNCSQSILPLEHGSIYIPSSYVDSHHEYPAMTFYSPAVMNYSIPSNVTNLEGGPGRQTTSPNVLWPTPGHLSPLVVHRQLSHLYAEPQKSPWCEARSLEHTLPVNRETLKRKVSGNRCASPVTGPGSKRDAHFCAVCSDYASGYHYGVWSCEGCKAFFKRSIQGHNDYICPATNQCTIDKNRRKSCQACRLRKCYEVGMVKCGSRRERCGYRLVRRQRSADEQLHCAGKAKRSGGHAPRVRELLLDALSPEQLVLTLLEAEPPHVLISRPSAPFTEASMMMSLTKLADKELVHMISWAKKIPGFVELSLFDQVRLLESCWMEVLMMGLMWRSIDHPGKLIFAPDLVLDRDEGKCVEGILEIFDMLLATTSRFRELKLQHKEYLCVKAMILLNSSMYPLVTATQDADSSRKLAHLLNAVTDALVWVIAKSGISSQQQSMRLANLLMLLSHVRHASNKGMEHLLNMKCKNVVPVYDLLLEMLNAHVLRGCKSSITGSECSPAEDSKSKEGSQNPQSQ
Protocol: ERα, ERβ, E-Cadherin and Id-2 gene expression was determined by RT-PCR, relating their RNA expression to that of GAPDH gene. Total RNA extracted from tumors was reversely transcribed by Thermoscript RT-PCR System (INVITROGEN). The cDNA generated was used as template for PCR with primers specific for ERα and β, E-Cadherin and Id-2.
Western blot analysis was performed as follows: proteins were extracted by homogenization in RIPA buffer and their content was determined by Bio-Rad Protein Assay. Protein aliquots were separated by size on 10% SDS-PAGE and transferred to nitrocellulose membrane. Immunodetection was performed using: anti-ERa Polyclonal Ab (HC-20, Santa Cruz Biotechnologies), […] Polyclonal Ab (06-629, Upstate Biotechnologies), anti-α-Actin (Sigma), and anti-α-Tubulin (Santa CruzBiotechnologies).
The effect of estradiol on ERβ expression in HT-29 human CRC and H460 human NSCLC was analyzed by western blot (FIGS. 9 and 10, respectively.).
The effect of estradiol on ERβ activation in HT-29 human CRC and H460 human NSCLC cells was analyzed by RT-PCR, where increased expression of the E-Cadherin gene (in HT-29 cells) and increased expression of the Id-2 gene (in H460 cells) is indicative of ERP activation (FIGS. 11 and 12, respectively.).

[3] = test system: cathepsin B; assay: Cathepsin B activity assay in tumor homogenate (Z-Arg-Arg-AMC); type: in vivo; settings: HT-29 tumors; increased levels of estrogen, s.c. pellets
Protocol: Cathepsin B activity assay was performed as follows: proteins were extracted by homogenization in cathepsin B buffer in ratio of 1 ml of buffer per 100 mg of tissue. The test utilized the ability of cathepsin B to digest the synthetic substrate Z-Arg-Arg-AMC. Released AMC was determined fluorometrically at excitation wavelength 390 nm and emission wave-length 460 nm. The activity of cathepsin B was quantified versus an AMC standard curve.

[4] = test system: HT-29 human CRC xenograft tumor model; settings: associated with increased cathepsin B activity (E2 supplemented)
Protocol: Antitumor activity parameters were determined as follows: • 1. Tumor weight inhibition % (TWI %) equals 100 minus (TW of treated divided by TW of control) times 100, which was evaluated at day 60 from pellet implant. • 2. Tumor growth delay (TGD): TGD equals TG Treated minus TG Control, where TG is the mean time, in days, for the tumor to reach a weight of 1 gram (g). • 3. Log cell kill (LCK) was calculated by the formula: LCK equals ((TGD 1 g) divided by 3.32) times DT, where DT is the time (days) necessary for the tumor to double in volume, in control and experimental groups.
Statistical analyses were performed using one-way ANOVA Bonferroni post test.

[5] = test system: NSCLC; assay: Composite analysis of two phase III studies (STELLAR 3 and STELLAR 4): survival by sex and age, PPX vs control; type: in vivo, human; settings: for HR: PPX vs CONTROL
Protocol: Two phase III studies, enrolling a total of 781 patients with NSCLC and a poor performance status (PS2), were conducted. […] In order to study the effect of sex and estrogen on survival among the various treatment groups, the results from both phase III clinical trials were combined and a composite analysis performed.
Functional menopausal status was assigned based on age and pretreatment estradiol levels, when available. The study was a composite of results from both clinical studies.

[6] = test system: NSCLC; assay: Phase III study (STELLAR 3): CT-2103/PPX + carboplatin vs paclitaxel + carboplatin, overall survival by estrogen level; type: in vivo, human; settings: CT-2103 210 mg/m^2 + carboplatin AUC 6 vs paclitaxel 225 mg/m^2 + carboplatin AUC 6
Source text: The experiments and results presented in example 1 describe the correlation between estrogen levels and treatment with CT-2103 versus paclitaxel, as measured by overall survival (OS). The data depicted in FIGS. 1 and 2 were derived from a multinational, phase III, open-label study. […] Randomization was stratified to minimize potential imbalances between the 2 treatment arms. After they were selected for the study, patients were stratified by disease stage (IV vs other), gender, geographic location (US vs. Western Europe and Canada vs. rest of the world), and history of brain metastases (yes vs. no).
From the initial sample set, a subset consisting of either high or low estrogen women was analyzed. […] Estrogen levels in women were determined by a competitive immunoassay (e.g., DPC […] 2000 Analyzer, NY; DPC […] Analyzer, Ireland). […]
Patients received CT-2103/carboplatin or paclitaxel/carboplatin, by intravenous infusion, on day 1 of each 21-day cycle for a total of 6 cycles. Toxicities were evaluated at each patient visit. Hematology, clinical chemistry, and coagulation parameters were evaluated before and during the study period. […] The efficacy and safety outcomes of this study were monitored by an independent Data Monitoring Committee (DMC).
Efficacy of the treatments was determined by evaluation of tumor burden according to RECIST. […]

[7] = test system: NCI-H460 human lung carcinoma; settings: H460 tumor cells

Compound: C[C@]12CC[C@@H]3c4ccc(O)cc4CC[C@H]3[C@@H]1CC[C@@H]2O [17β estradiol, 17β Estradiol]
- tumor weight [1]: increases
- ERβ activation and/or expression [2]: induce ERβ activation and/or expression
- cathepsin B activity [3]: increases

Compound: paclitaxel poliglumex [PPX]
- PPX antitumor activity [4]: enhanced
- OS ([5]; FEMALE): 285 days
- HR ([5]; FEMALE): 0.70
- OS ([5]; MALE): 220 days
- HR ([5]; MALE): 1.05
- OS ([5]; women under 55 years of age, PPX vs control arm): prolonged
- overall survival (OS) ([6]; women with postmenopausal (low) estrogen levels): no apparent effect on survival
- overall survival (OS) ([6]; women with premenopausal (high) estrogen levels): improved outcome
- mechanism of uptake of intact PPX into the cellular compartment [7]: energy-dependent endocytosis, in a dose- and time-dependent manner
